# How the values were obtained:
# PS1/APP mice = assay: Alzheimer's disease model, 2-photon Ca2+ imaging of CA1 pyramidal neurons in brain slices; type: in vivo, mouse; conditions: 10 mg/kg IP for 4 weeks, vs saline
# Excerpt: PS1/APP mice (PS1M146V and APPSWE) (Howlett et al., Brain Res. 2004, 1017, 130-136) were used. Age-matched NTg controls were on the same background strain (C57bl6/J9).
# Mice were deeply anesthetized with halothane and rapidly decapitated. The brains were extracted rapidly and 300 or 400 μm-thick transverse hippocampal slices were cut with a vibrating microtome into ice-cold oxygenated artificial cerebrospinal fluid (aCSF) with the following composition (in mM): 125 NaCl, 2.5 KCl, 1.25 KH2PO4, 1.2 MgSO4, 2 CaCl2, 10 dextrose, and 25 NaHCO3.
# Ca^2+ imaging within individual neurons was performed in brain slice preparations using a custom-made video-rate multiphoton-imaging system based on an upright Olympus BX51 microscope frame. […] Emitted fluorescence light was detected by a wide-field photomultiplier (Electron Tubes) to derive a video signal that was captured and analyzed by Video Savant 5.0 software (IO Industries). […] For clarity, results are expressed as inverse ratios so that increases in [Ca^2+] correspond to increasing ratios. The % change is calculated as […], where F is the average resting fluorescence at baseline and ΔF is the decrease of fluorescence reflecting Ca release. Differences between drug- and saline-treated groups were assessed using two-way ANOVA and Scheffe post hoc analysis for significance (p<0.05). […]
# SERCA = assay: Ca-ATPase assay, microsomal preparations from HEK 293 cells; type: biochemical, human
# Method: A Ca-ATPase assay was performed using microsomal preparations from HEK 293 cells at a series of calcium concentrations corresponding to the physiological range, relative to controls. The ATP hydrolysis rate was measured over a range of calcium concentrations in the presence of test compounds using an NADH-linked, enzyme-coupled ATPase assay adapted for 96-well microplates, with Vmax determined by fitting the ATPase calcium-dependence to the Hill function. […] CaCl2 was added to set free [Ca^2+] to the specific values.
# [1] = tested on: 6-OHDA lesioned Wistar rats; assay: Rat unilateral 6-OHDA model of Parkinson's disease, stepping test; type: in vivo; conditions: D11, 10 mg/kg IP once daily for 15 days; 6-OHDA/Vehicle 1.19±0.24 steps
# Method: Fifty adult male Wistar rats were used. The rats from different groups (G1 to G5) were randomized. At the beginning of the study, the rats were about 5 weeks old and naive to previous administration of any drug.
# A stereotaxic injection of 6-OHDA (G2 to G5) or saline (G1: sham group) was performed to induce a unilateral dopaminergic lesion on day 0 (D0). Surgery was performed on D0 under ketamine (50 mg/kg) and xylazine (10 mg/kg). The rats of G2 to G5 received a unilateral injection of 6-OHDA (6 μL) in the left substantia nigra pars compacta. Jouve et al., J. Neurosci. 2010, 30, 9919-9928. The rats of the G1 sham group were injected with saline. During surgery, local analgesia was achieved using subcutaneous injections of lidocaine. At the end of surgery, the rats were treated with buprenorphine (0.05 mg/kg, S.C.).
# The stepping test was performed after IT test, both before the 6-OHDA lesion induction on D0 and on D11. Around D−6, the stepping test was performed eight consecutive times for the right paw of each animal to obtain baseline values. On D11, the stepping test was performed one hour after the rats were dosed. Each rat was hold by an experimenter and only one of the two forelimbs was left free to move above a plane surface and the other was held with the paw touching the table. The rats were then to be moved slowly forward by the experimenter. The number of adjusting steps was countered for the right paw. Olsson et al., J. Neurosci. 1995, 15, 3863-3875.
# L-DOPA and benserazide (a peripheric DOPA decarboxylase inhibitor) were prepared together as a single solution containing 0.9% NaCl and 0.1% ascorbic acid.
# All the dosings were given via the IP route, once daily, Sunday excluded.
# ob/ob mice = assay: Insulin tolerance test (ITT); type: in vivo, mouse; conditions: day 10 post-injection, compared with vehicle
# Method: Both glucose (GTT) and insulin (ITT) tolerance tests were performed following a 10-hr fast and an additional 2-hr after CDNs injection with baseline blood glucose measurement taken before the beginning of the test. For the GTT, D-glucose dissolved in 0.9% NaCl was delivered intraperitoneally at a dose of 1 g/kg. The blood glucose level was measured 0, 15, 30, 60, 90, and 120 min after glucose administration. For the ITT, insulin was administered intraperitoneally at a dose of 1 IU/kg. The blood glucose level was measured 0, 15, 30, 60, 90, and 120 min after insulin administration. Glucose levels were measured in blood samples drawn from the tail vein using OneTouch Ultra 2 Meter (LifeScan, Inc.).
smiles,measurement,setting,value
"Cc1ccc2cccc(NC(=O)c3ccc(OC(C)C)cc3)c2n1 [Compound A12, 4-Isopropoxy-N-(2-methylquinolin-8-yl)benzamide]",ER Ca2+ signaling (RyR-Ca2+ response to caffeine),PS1/APP mice,restores ER Ca^2+ signaling
same,Vmax of a SERCA,SERCA,significantly increased
same,number of adjusting steps,[1],6.94±0.86 steps
same,insulin-stimulated glucose deposal (ITT),ob/ob mice,strongly enhanced

# — US20170281611A1, “QUINOLINES AND THEIR USE FOR TREATING ENDOPLASMIC RETICULUM STRESS-CAUSED DISEASES” (EIGER BIOPHARMACEUTICALS, INC., priority 2014, published 2017)
